# Counter-ions that a name gives are not always drawn. Like-named read-outs stand apart in the source and are kept apart here.
# Legend:
# [1] = cited from earlier work
# [2] = Determination of pKa values of CD derivatives by UV-Vis spectroscopy; type: physicochemical; conditions: Britton–Robinson buffer, pH range 2.7 to 9.5, triazole linker
# Source text: Due to the fact that the triazole linker in CD derivatives contains a basic nitrogen atom that can be protonated at an acidic pH, we determined the value of pKa by UV-Vis spectroscopy. The spectra of βCDGAL, βCDLip, and βCDTriazol, at the pH range between 2.7 and 9.5, are presented on Figure 3. The dependence of the absorbance of the peak maximum at wavelengths in the range of 210–220 on the pH of the buffer is presented in the figures. According to the equation […] for equal concentrations of the protonated and deprotonated forms, pKa = pH; the pKa value, for all three derivatives containing the triazole linker, was determined to be 4.5.
# The UV-Vis measurements were performed using an Agilent Technologies Cary 60 UV-Vis Spectrophotometer (Santa Clara, CA, USA). All UV-Vis spectra were measured using quartz cuvettes with a 1 cm optical path length. For pKa determination the 0.2 mg/mL concentration of βCDTriazole, βCDGAL or βCDLip in Britton–Robinson buffer were used.
# [3] = Solubility of AQ2CA without cyclodextrins (UV-Vis); type: physicochemical; conditions: 25 °C, thermodynamic from solid
# Source text: (§1) Anthraquinone-2-carboxylic acid (AQ2CA) is a poorly water-soluble drug (SAQ2CA in water = 3.98 × 10^−5 M). […] An improvement in the aqueous solubility of AQ2CA would improve the biological availability of the drug. Such a drug solubilization effect was achieved via complexation using appropriate CD derivatives. The phase solubility method developed by Higuchi and Connors was employed to quantify the solubilization ability of cyclodextrins. The solubility values of AQ2CA in water, BR buffer at pH 7.4 (pH corresponding to the physiological conditions), and BR buffer at pH 3.0, with the addition of CDs was determined. The pH values characteristic for bodily fluids (pH 7.4) and for gastric juices (pH 3) were chosen for these measurements. […] According to the Higuchi and Connors classification, the phase solubility diagrams for anthraquinone-2-carboxylic acid with various cyclodextrin concentrations can be classified as AL type.
# (§2) Solubility studies of anthraquinone-2-carboxylic acid with three different cyclodextrins were carried out according to the Higuchi and Connors procedure. The solutions of cyclodextrin in water and Britton–Robinson buffers (pH 7.4 and 5.5) were prepared in a concentration range of 0–3 mM. A constant amount of AQ2CA (3 mM) that exceeded its solubility was added into the cyclodextrin solution. Molar ratios of AQ2CA/CD were 1:0, 1:0.2, 1:0.4, 1:0.6, 1:0.8, and 1:1. Three samples of each molar ratio were prepared. The suspensions were shaken for 24 h at 25 °C, after which equilibrium was reached. After 24 h, the concentration of the dissolved drug was monitored by UV-Vis spectroscopy and plateaued; thus, the maximum dissolved drug was achieved. Subsequently, the samples were filtered using a 0.45 µm filter and appropriately diluted. The aliquots of solutions were assayed for AQ2CA again, by UV-Vis spectroscopy, in the 200–600 nm range with a maximum absorbance value for AQ2CA at 335 nm. […] The association constants of the inclusion complexes were determined using the following equation:(1) K1:1=Slope/S0(1−Slope) where K1:1 is the association constant and S0 is the solubility of AQ2CA in the absence of cyclodextrin. The slope was measured by UV-Vis spectroscopy from the initial straight-line part of the AQ2CA concentration vs. CD concentration plot. The uncertainty was determined as the standard deviation of the three values of the association constants obtained from three different repetitions of the given system.
# [4] = Phase solubility diagrams (Higuchi and Connors) of AQ2CA with cyclodextrins; type: physicochemical; conditions: for K1:1 (association constant, AQ2CA–cyclodextrin): phase solubility diagram, 25 °C; for Increase in solubility of AQ2CA (in words): pH 3.0
# Source text: as §1
# The association constant of the AQ2CA–cyclodextrin complex (1:1) was calculated from the linear plot of the phase solubility diagrams using Equation (1). The lines are started at the point of initial drug solubility, meaning, i.e., without the addition of cyclodextrin. The values of K1:1, as well as the solubility increase and correlation coefficients of the phase solubility diagrams, are presented in Table 1.
# as §2, with “The solutions of cyclodextrin in water and Britton–Robinson buffers (pH 7.4 and 5.5) were prepared in a concentration range of 0–3 mM.” left out
pKa [2],"K1:1 (association constant, AQ2CA–cyclodextrin) ([4]; Britton–Robinson buffer pH 3.0) [M⁻¹]","K1:1 (association constant, AQ2CA–cyclodextrin) ([4]; Britton–Robinson buffer pH 7.4) [M⁻¹]","K1:1 (association constant, AQ2CA–cyclodextrin) ([4]; water) [M⁻¹]",SMILES,also measured
,,,,"COc1cccc2c1C(=O)c1c(O)c3c(c(O)c1C2=O)C[C@@](O)(C(C)=O)C[C@@H]3O[C@H]1C[C@H](N)[C@H](O)[C@H](C)O1 [DNR, daunorubicin]",pKa [1]: 7.48
4.5,,,,CCCc1cn(C[C@H]2O[C@@H]3O[C@H]4[C@H](O)[C@@H](O)[C@@H](O[C@H]5[C@H](O)[C@@H](O)[C@@H](O[C@H]6[C@H](O)[C@@H](O)[C@@H](O[C@H]7[C@H](O)[C@@H](O)[C@@H](O[C@H]8[C@H](O)[C@@H](O)[C@@H](O[C@H]9[C@H](O)[C@@H](O)[C@@H](O[C@H]2[C@H](O)[C@H]3O)O[C@@H]9CO)O[C@@H]8CO)O[C@@H]7CO)O[C@@H]6CO)O[C@@H]5CO)O[C@@H]4CO)nn1 [βCDTriazol],
,,,,"O=C(O)c1ccc2c(c1)C(=O)c1ccccc1C2=O [AQ2CA, 9,10-dihydro-9,10-dioxo-2-anthracenecarboxylic acid]","solubility at 24 h ([3]; aqueous buffer, Britton–Robinson buffer pH 3.0, without CDs, read-out: Solubility of AQ2CA in Britton–Robinson buffer, pH 3.0): 1.43 µM; solubility at 24 h ([3]; aqueous buffer, Britton–Robinson buffer pH 3.0, read-out: Solubility in Britton–Robinson buffer, pH 3.0 without CDs): 0.36 µg/mL; solubility at 24 h ([3]; aqueous buffer, Britton–Robinson buffer pH 7.4, without CDs, read-out: Solubility of AQ2CA in Britton–Robinson buffer, pH 7.4): 1740 µM; solubility at 24 h ([3]; aqueous buffer, Britton–Robinson buffer pH 7.4, read-out: Solubility in Britton–Robinson buffer, pH 7.4 without CDs): 440 µg/mL; solubility at 24 h ([3]; water, without CDs, read-out: Solubility of AQ2CA in water): 39.8 µM; solubility at 24 h ([3]; water, water, read-out: Solubility in water without CDs): 10 µg/mL"
4.5,2520 ± 175,940 ± 25,800 ± 40,O=C(CCCCC1CCSS1)OCc1cn(C[C@H]2O[C@@H]3O[C@H]4[C@H](O)[C@@H](O)[C@@H](O[C@H]5[C@H](O)[C@@H](O)[C@@H](O[C@H]6[C@H](O)[C@@H](O)[C@@H](O[C@H]7[C@H](O)[C@@H](O)[C@@H](O[C@H]8[C@H](O)[C@@H](O)[C@@H](O[C@H]9[C@H](O)[C@@H](O)[C@@H](O[C@H]2[C@H](O)[C@H]3O)O[C@@H]9CO)O[C@@H]8CO)O[C@@H]7CO)O[C@@H]6CO)O[C@@H]5CO)O[C@@H]4CO)nn1 (stereo partly drawn) [βCDLip],Increase in solubility of AQ2CA (in words) [4]: almost tenfold increase
,1480 ± 180,350 ± 40,460 ± 45,"OC[C@H]1O[C@@H]2O[C@H]3[C@H](O)[C@@H](O)[C@@H](O[C@H]4[C@H](O)[C@@H](O)[C@@H](O[C@H]5[C@H](O)[C@@H](O)[C@@H](O[C@H]6[C@H](O)[C@@H](O)[C@@H](O[C@H]7[C@H](O)[C@@H](O)[C@@H](O[C@H]8[C@H](O)[C@@H](O)[C@@H](O[C@H]1[C@H](O)[C@H]2O)O[C@@H]8CO)O[C@@H]7CO)O[C@@H]6CO)O[C@@H]5CO)O[C@@H]4CO)O[C@@H]3CO [βCD, β-Cyclodextrin]",
4.5,2760 ± 110,1300 ± 60,840 ± 45,O=C(N[C@H]1C(O)O[C@H](CO)[C@H](O)[C@@H]1O)OCc1cn(C[C@H]2O[C@@H]3O[C@H]4[C@H](O)[C@@H](O)[C@@H](O[C@H]5[C@H](O)[C@@H](O)[C@@H](O[C@H]6[C@H](O)[C@@H](O)[C@@H](O[C@H]7[C@H](O)[C@@H](O)[C@@H](O[C@H]8[C@H](O)[C@@H](O)[C@@H](O[C@H]9[C@H](O)[C@@H](O)[C@@H](O[C@H]2[C@H](O)[C@H]3O)O[C@@H]9CO)O[C@@H]8CO)O[C@@H]7CO)O[C@@H]6CO)O[C@@H]5CO)O[C@@H]4CO)nn1 (stereo partly drawn) [βCDGAL],Increase in solubility of AQ2CA (in words) [4]: almost tenfold increase
,2450 ± 200,,280 ± 30,"NC[C@H]1O[C@@H]2O[C@H]3[C@H](O)[C@@H](O)[C@@H](O[C@H]4[C@H](O)[C@@H](O)[C@@H](O[C@H]5[C@H](O)[C@@H](O)[C@@H](O[C@H]6[C@H](O)[C@@H](O)[C@@H](O[C@H]7[C@H](O)[C@@H](O)[C@@H](O[C@H]8[C@H](O)[C@@H](O)[C@@H](O[C@H]1[C@H](O)[C@H]2O)O[C@@H]8CO)O[C@@H]7CO)O[C@@H]6CO)O[C@@H]5CO)O[C@@H]4CO)O[C@@H]3CO [βCDamine, 6-monodeoxy-6-monoamino-β-cyclodextrin hydrochloride]",pKa ([1]; amine derivative CD): 8.84
